Test systems include 786-0; CAKI-1; CCRF-CEM; HCC 2998; HCT-15; IGROV-1; KM12; MDA-MB-231; MDA-MB-435; OVCAR-3; OVCAR-4; OVCAR-8; PC-3; RPMI-8226; RXF 393; SF-268; SK-MEL-5; SNB-19; T47D; UACC-257.
What all share (assay): inhibition of tumour cell growth, NCI panel, 48 h

Structures are written as SMILES.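 Test compounds were applied to cells in 96-well plates for 48 hours at 5 doses. GI50 marks 50% less growth.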 Activity calls are given as the source filed them. Cut-off read from the data, not from the text of the source: active = GI50 up to about 1.1 µM and inactive = higher.

On to `COC(=O)NC(Cc1ccccc1)NC(=O)OC(C)(C)C` (stereo not given), for which the GI50 with 786-0 was > 100 µM (inactive); with CAKI-1, > 100 µM (inactive); in the assay on CCRF-CEM, > 100 µM (inactive); with HCC 2998, > 100 µM (inactive); in the assay on HCT-15, more than 100 µM; in the assay on IGROV-1 it was > 100 µM (inactive). Further, the GI50 in the assay on KM12, in the assay on MDA-MB-231, in the assay with MDA-MB-435, in the assay on OVCAR-3, in the assay on OVCAR-4 and in the assay on OVCAR-8 was > 100 µM (inactive) each time. The GI50 with PC-3, with RPMI-8226, with RXF 393, with SF-268, with SK-MEL-5 and in the assay on SNB-19 was > 100 µM (inactive) each time. For the same molecule, the GI50 in the assay with T47D and in the assay on UACC-257 was > 100 µM (inactive) in each case.
`CCc1cccc(C(C)C)c1NC1=C([n+]2ccc(C)cc2)C(=O)c2ccccc2C1=O.[O-][Cl+3]([O-])([O-])[O-]`: the GI50 in the assay with 786-0 is 0.481 µM (active); with CAKI-1, 1.13 µM (inactive); in the assay with CCRF-CEM it was 0.21 µM (active); in the assay on HCC 2998 it was 3.21 µM (inactive); in the assay on HCT-15, 3.62 µM; in the assay with IGROV-1 it was 0.284 µM (active). The GI50 in the assay on KM12 was 2.77 µM (inactive); in the assay with MDA-MB-231 it was 2.21 µM (inactive); with MDA-MB-435 it was 1.7 µM (inactive); in the assay on OVCAR-3, 0.647 µM (active); in the assay with OVCAR-4, 1.73 µM (inactive); with OVCAR-8, 0.962 µM (active). The GI50 is 1.54 µM (inactive) in the assay on PC-3; 0.423 µM (active) in the assay with RPMI-8226; 0.575 µM (active) in the assay with RXF 393; 0.359 µM (active) with SF-268; 1.14 µM (inactive) in the assay with SK-MEL-5; 1.83 µM (inactive) with SNB-19. Moreover, the values for the GI50 with T47D and in the assay on UACC-257 were 0.13 µM (active) and 0.993 µM (active), respectively.
For the molecule `C=CC(C)(C)n1cc(C2=C(O)C(=O)C(c3c(CC=C(C)C)[nH]c4ccccc34)=C(O)C2=O)c2ccccc21`, the GI50 was 2 µM (inactive) with 786-0; 2.39 µM (inactive) in the assay with CAKI-1; 1.92 µM (inactive) in the assay on CCRF-CEM; 1.04 µM (active) with HCC 2998; 1.62 µM in the assay on HCT-15; 0.879 µM (active) with IGROV-1. In addition, the GI50 in the assay on KM12 is 0.979 µM (active); in the assay on MDA-MB-231, 1.81 µM (inactive); in the assay on MDA-MB-435 it was 0.711 µM (active); in the assay on OVCAR-3, 1.32 µM (inactive); with OVCAR-4, 2.19 µM (inactive); in the assay on OVCAR-8, 1.3 µM (inactive). In addition, the GI50 with PC-3 was 1.73 µM (inactive); in the assay on RPMI-8226 it was 1.64 µM (inactive); with RXF 393 it was 1.74 µM (inactive); with SF-268, 0.548 µM (active); with SK-MEL-5 it was 1.87 µM (inactive); in the assay with SNB-19, 1.96 µM (inactive). For the same molecule, the GI50 in the assay on T47D was 2.47 µM (inactive); with UACC-257 it was 2.88 µM (inactive).
Take `C=C1C(=O)OC2/C=C(\C)C(=O)CC3OC(C)(C)OC3(C)CC(OC(=O)/C(C)=C/C)C12` (stereo not given): the GI50 with 786-0 is 7.66 µM (inactive); in the assay with CAKI-1, 3.51 µM (inactive); in the assay on CCRF-CEM it was 0.897 µM (active); with HCC 2998 it was 15.9 µM (inactive); with HCT-15, 4.49 µM; in the assay with IGROV-1, 14.4 µM (inactive). In addition, the GI50 is 17.9 µM (inactive) with KM12; 23.6 µM (inactive) in the assay with MDA-MB-231; 19.6 µM (inactive) with MDA-MB-435; 10.8 µM (inactive) in the assay on OVCAR-3; 17.6 µM (inactive) with OVCAR-4; 20.6 µM (inactive) in the assay on OVCAR-8. The GI50 with PC-3 was 25.8 µM (inactive); in the assay on RPMI-8226, 3.66 µM (inactive); with RXF 393 it was 12 µM (inactive); in the assay with SF-268, 12.6 µM (inactive); with SK-MEL-5, 14.7 µM (inactive); with SNB-19, > 80.9 µM (inactive). Also, the GI50 with T47D was 17.6 µM (inactive); with UACC-257, 13.7 µM (inactive).

The values above are taken from ChEMBL document CHEMBL1201862, “PubChem BioAssay data set” (2004).
